{"source": "patent US20160002226A1", "about": "“PYRI[…] AND THEIR USE IN THE TREATMENT, AMELIORATION OR PREVENTION OF INFLUENZA” (F. Hoffmann-La Roche AG, priority 2014, published 2016)", "data": [{"target": "T1, influenza A virus (IAV) PA-Nter fragment (amino acids 1-209) (Influenza A virus, UniProt P31343)", "T1 construct": "PA-Nter fragment (amino acids 1-209); made in house", "test": "FRET endonuclease activity assay", "type": "biochemical", "conditions": "PA-Nter 0.5 μM, 1.6 μM RNA substrate", "units": {"IC50": "nM"}, "values": [{"smiles": "CN1CCn2c(CNS(=O)(=O)c3ccccc3)cc(=O)c(O)c2C1=O", "IC50": 27}, {"smiles": "CN1CCn2c(CNS(=O)(=O)c3ccc(Cl)cc3)cc(=O)c(O)c2C1=O", "IC50": 130}, {"smiles": "Cc1ccccc1S(=O)(=O)NCc1cc(=O)c(O)c2n1CCN(C)C2=O", "IC50": 48}, {"smiles": "CN1CCn2c(CNS(=O)(=O)c3cccc(Cl)c3)cc(=O)c(O)c2C1=O", "IC50": 82}, {"smiles": "CC(C)N1CCn2c(CNS(=O)(=O)c3ccccc3)cc(=O)c(O)c2C1=O", "IC50": 130}, {"smiles": "CC(C)N1CCn2c(CNS(=O)(=O)c3ccccc3Cl)cc(=O)c(O)c2C1=O", "IC50": 87}, {"smiles": "CC(C)N1CCn2c(CNS(=O)(=O)c3cccc(Cl)c3)cc(=O)c(O)c2C1=O", "IC50": 62}, {"smiles": "CC(C)N1CCn2c(CNS(=O)(=O)c3ccc(Cl)cc3)cc(=O)c(O)c2C1=O", "IC50": 209}, {"smiles": "CC(C)N1CCn2c(CNS(=O)(=O)c3cccc(F)c3)cc(=O)c(O)c2C1=O", "IC50": 153}, {"smiles": "CC(C)N1CCn2c(CNS(=O)(=O)c3ccccc3F)cc(=O)c(O)c2C1=O", "IC50": 104}, {"smiles": "CC(C)N1CCn2c(CNS(=O)(=O)c3ccc(C#N)cc3)cc(=O)c(O)c2C1=O", "IC50": 322}, {"smiles": "Cc1ccc(S(=O)(=O)NCc2cc(=O)c(O)c3n2CCN(C(C)C)C3=O)cc1", "IC50": 203}, {"smiles": "CC(C)N1CCn2c(CNS(=O)(=O)Cc3ccc(Cl)cc3)cc(=O)c(O)c2C1=O", "IC50": 603}, {"smiles": "CC(C)N1CCn2c(CNS(=O)(=O)Cc3ccccc3)cc(=O)c(O)c2C1=O", "IC50": 187}, {"smiles": "CC(C)N1CCn2c(CNS(=O)(=O)c3c(Cl)cccc3Cl)cc(=O)c(O)c2C1=O", "IC50": 119}, {"smiles": "CC(C)N1CCn2c(CNS(=O)(=O)c3ccc(Cl)cc3F)cc(=O)c(O)c2C1=O", "IC50": 223}, {"smiles": "CC(C)N1CCn2c(CNS(=O)(=O)c3ccc(Cl)cc3Cl)cc(=O)c(O)c2C1=O", "IC50": 144}, {"smiles": "CC(C)N1CCn2c(CNS(=O)(=O)c3cccc4ccccc34)cc(=O)c(O)c2C1=O", "IC50": 124}, {"smiles": "CC(C)N1CCn2c(CNS(=O)(=O)c3cn(C)cn3)cc(=O)c(O)c2C1=O", "IC50": 260}, {"smiles": "Cc1noc(C)c1S(=O)(=O)NCc1cc(=O)c(O)c2n1CCN(C(C)C)C2=O", "IC50": 182}, {"smiles": "CC(C)N1CCn2c(CNS(=O)(=O)C3CC3)cc(=O)c(O)c2C1=O", "IC50": 181}, {"smiles": "CC(C)CS(=O)(=O)NCc1cc(=O)c(O)c2n1CCN(C(C)C)C2=O", "IC50": 211}, {"smiles": "CC(C)N1CCn2c(CNS(=O)(=O)N(C)C)cc(=O)c(O)c2C1=O", "IC50": 90}, {"smiles": "CC(C)N1CCn2c(CN(C)S(=O)(=O)c3ccccc3)cc(=O)c(O)c2C1=O", "IC50": 200}, {"smiles": "CC(C)N1CCn2c(CN(Cc3ccccc3)c3ccccc3)cc(=O)c(O)c2C1=O", "IC50": 1180}, {"smiles": "CC(C)N1CCn2c(CN(Cc3ccccc3)C(=O)c3ccccc3)cc(=O)c(O)c2C1=O", "IC50": 315}, {"smiles": "CC(C)N1CCn2c(CN(Cc3ccccc3)Cc3ccccc3)cc(=O)c(O)c2C1=O", "IC50": 1550}, {"smiles": "CCCN(Cc1ccccc1)Cc1cc(=O)c(O)c2n1CCN(C(C)C)C2=O", "IC50": 390}, {"smiles": "CC(C)N1CCn2c(CNC(=O)c3ccc(Cl)cc3)cc(=O)c(O)c2C1=O", "IC50": 245}, {"smiles": "CC(=O)N(Cc1ccccc1)Cc1cc(=O)c(O)c2n1CCN(C(C)C)C2=O", "IC50": 44}, {"smiles": "CC(=O)N(Cc1cc(=O)c(O)c2n1CCN(C(C)C)C2=O)C1CCCCC1", "IC50": 48}, {"smiles": "CC(C)N1CCn2c(CNC3CCCCC3)cc(=O)c(O)c2C1=O", "IC50": 497}, {"smiles": "CC(C)N1CCn2c(CN(C(=O)Cc3ccc(F)cc3F)C3CCCCC3)cc(=O)c(O)c2C1=O", "IC50": 580}, {"smiles": "CC(C)CC(=O)N(Cc1cc(=O)c(O)c2n1CCN(C(C)C)C2=O)C1CCCCC1", "IC50": 469}, {"smiles": "CC(C)N1CCn2c(CN(C)C)cc(=O)c(O)c2C1=O", "IC50": 92}, {"smiles": "CC(C)N1CCn2c(CN)cc(=O)c(O)c2C1=O", "IC50": 493}, {"smiles": "CC(C)N1CCn2c(CNC3c4ccccc4CCc4ccccc43)cc(=O)c(O)c2C1=O", "IC50": 3620}, {"smiles": "CC(C)N1CCn2c(CNC(c3ccccc3)c3ccccc3)cc(=O)c(O)c2C1=O", "IC50": 1130}, {"smiles": "Cc1cccc(C(=O)NCc2cc(=O)c(O)c3n2CCN(C(C)C)C3=O)c1", "IC50": 1070}]}, {"test_system": "influenza A virus A/Aichi/2/68 (H3N2) on MDCK cells", "test": "Cytopathic effect (CPE) assay", "type": "cell-based", "conditions": "Influenza A virus, 48 hrs, the 1st table", "units": {"IC50": "nM"}, "values": [{"smiles": "CN1CCn2c(CNS(=O)(=O)c3ccccc3)cc(=O)c(O)c2C1=O", "IC50": "> 50000"}, {"smiles": "CN1CCn2c(CNS(=O)(=O)c3ccc(Cl)cc3)cc(=O)c(O)c2C1=O", "IC50": "> 50000"}, {"smiles": "Cc1ccccc1S(=O)(=O)NCc1cc(=O)c(O)c2n1CCN(C)C2=O", "IC50": "> 50000"}, {"smiles": "CN1CCn2c(CNS(=O)(=O)c3cccc(Cl)c3)cc(=O)c(O)c2C1=O", "IC50": "> 50000"}, {"smiles": "CC(C)N1CCn2c(CNS(=O)(=O)c3ccccc3)cc(=O)c(O)c2C1=O", "IC50": "> 50000"}, {"smiles": "CC(C)N1CCn2c(CNS(=O)(=O)c3ccccc3Cl)cc(=O)c(O)c2C1=O", "IC50": "> 50000"}, {"smiles": "CC(C)N1CCn2c(CNS(=O)(=O)c3cccc(Cl)c3)cc(=O)c(O)c2C1=O", "IC50": "> 50000"}, {"smiles": "CC(C)N1CCn2c(CNS(=O)(=O)c3ccc(Cl)cc3)cc(=O)c(O)c2C1=O", "IC50": "> 50000"}, {"smiles": "CC(C)N1CCn2c(CNS(=O)(=O)c3cccc(F)c3)cc(=O)c(O)c2C1=O", "IC50": "> 50000"}, {"smiles": "CC(C)N1CCn2c(CNS(=O)(=O)c3ccccc3F)cc(=O)c(O)c2C1=O", "IC50": "> 50000"}, {"smiles": "CC(C)N1CCn2c(CNS(=O)(=O)c3ccc(C#N)cc3)cc(=O)c(O)c2C1=O", "IC50": "> 50000"}, {"smiles": "Cc1ccc(S(=O)(=O)NCc2cc(=O)c(O)c3n2CCN(C(C)C)C3=O)cc1", "IC50": "> 50000"}, {"smiles": "CC(C)N1CCn2c(CNS(=O)(=O)Cc3ccc(Cl)cc3)cc(=O)c(O)c2C1=O", "IC50": "> 50000"}, {"smiles": "CC(C)N1CCn2c(CNS(=O)(=O)Cc3ccccc3)cc(=O)c(O)c2C1=O", "IC50": "> 50000"}, {"smiles": "CC(C)N1CCn2c(CNS(=O)(=O)c3c(Cl)cccc3Cl)cc(=O)c(O)c2C1=O", "IC50": "> 50000"}, {"smiles": "CC(C)N1CCn2c(CNS(=O)(=O)c3ccc(Cl)cc3F)cc(=O)c(O)c2C1=O", "IC50": "> 50000"}, {"smiles": "CC(C)N1CCn2c(CNS(=O)(=O)c3ccc(Cl)cc3Cl)cc(=O)c(O)c2C1=O", "IC50": "> 50000"}, {"smiles": "CC(C)N1CCn2c(CNS(=O)(=O)c3cccc4ccccc34)cc(=O)c(O)c2C1=O", "IC50": "> 50000"}, {"smiles": "CC(C)N1CCn2c(CNS(=O)(=O)c3cn(C)cn3)cc(=O)c(O)c2C1=O", "IC50": "> 50000"}, {"smiles": "Cc1noc(C)c1S(=O)(=O)NCc1cc(=O)c(O)c2n1CCN(C(C)C)C2=O", "IC50": "> 50000"}, {"smiles": "CC(C)N1CCn2c(CNS(=O)(=O)C3CC3)cc(=O)c(O)c2C1=O", "IC50": "> 50000"}, {"smiles": "CC(C)CS(=O)(=O)NCc1cc(=O)c(O)c2n1CCN(C(C)C)C2=O", "IC50": "> 50000"}, {"smiles": "CC(C)N1CCn2c(CNS(=O)(=O)N(C)C)cc(=O)c(O)c2C1=O", "IC50": "> 50000"}, {"smiles": "CC(C)N1CCn2c(CN(C)S(=O)(=O)c3ccccc3)cc(=O)c(O)c2C1=O", "IC50": "> 50000"}, {"smiles": "CC(C)N1CCn2c(CN(Cc3ccccc3)C(=O)c3ccccc3)cc(=O)c(O)c2C1=O", "IC50": "> 50000"}, {"smiles": "CC(C)N1CCn2c(CN(Cc3ccccc3)Cc3ccccc3)cc(=O)c(O)c2C1=O", "IC50": "> 50000"}, {"smiles": "CCCN(Cc1ccccc1)Cc1cc(=O)c(O)c2n1CCN(C(C)C)C2=O", "IC50": "> 50000"}, {"smiles": "CC(C)N1CCn2c(CNC(=O)c3ccc(Cl)cc3)cc(=O)c(O)c2C1=O", "IC50": "> 50000"}, {"smiles": "CC(=O)N(Cc1ccccc1)Cc1cc(=O)c(O)c2n1CCN(C(C)C)C2=O", "IC50": "> 50000"}, {"smiles": "CC(=O)N(Cc1cc(=O)c(O)c2n1CCN(C(C)C)C2=O)C1CCCCC1", "IC50": "> 50000"}, {"smiles": "CC(C)N1CCn2c(CNC3CCCCC3)cc(=O)c(O)c2C1=O", "IC50": "> 50000"}, {"smiles": "CC(C)N1CCn2c(CN(C(=O)Cc3ccc(F)cc3F)C3CCCCC3)cc(=O)c(O)c2C1=O", "IC50": "> 50000"}, {"smiles": "CC(C)CC(=O)N(Cc1cc(=O)c(O)c2n1CCN(C(C)C)C2=O)C1CCCCC1", "IC50": "> 50000"}, {"smiles": "CC(C)N1CCn2c(CN(C)C)cc(=O)c(O)c2C1=O", "IC50": "> 50000"}, {"smiles": "CC(C)N1CCn2c(CN)cc(=O)c(O)c2C1=O", "IC50": "> 50000"}, {"smiles": "CC(C)N1CCn2c(CNC3c4ccccc4CCc4ccccc43)cc(=O)c(O)c2C1=O", "IC50": "> 50000"}, {"smiles": "CC(C)N1CCn2c(CNC(c3ccccc3)c3ccccc3)cc(=O)c(O)c2C1=O", "IC50": "> 50000"}, {"smiles": "Cc1cccc(C(=O)NCc2cc(=O)c(O)c3n2CCN(C(C)C)C3=O)c1", "IC50": "> 50000"}]}]}
